Some test systems named below: SF-539 CNS; NCI-H522 lung; SNB-19 CNS; M14 melanoma; TK-10 renal; KM12 colon; SK-MEL-5 melanoma; A549 NSCLC; OVCAR-5 ovarian; SF-295 CNS.
Common to all, as to experiment: inhibition of tumour cell growth, NCI panel, 48 h

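All cell lines were grown in 96-well plates and treated with compound for 48 hours. GI50 is the concentration that inhibits growth by half. TGI denotes the concentration required for complete inhibition of growth.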

`CC1=NNC(=O)C2CCC(=O)N12` (stereo not given): the TGI in the assay with SF-539 CNS, in the assay with NCI-H522 lung, in the assay on SNB-19 CNS, in the assay with M14 melanoma, in the assay with TK-10 renal and in the assay with KM12 colon was over 100 µM each time. For the same compound, the TGI with SK-MEL-5 melanoma and in the assay with A549 NSCLC was over 100 µM in each case.
`O=C(Nc1nc2ccc(C(F)(F)F)cc2s1)c1cc(Cl)ccc1O`: the GI50 with SF-539 CNS was 1.49 µM; in the assay with NCI-H522 lung it was 0.278 µM; in the assay with SNB-19 CNS it was 0.629 µM; in the assay on OVCAR-5 ovarian, 3.67 µM; in the assay with M14 melanoma, 0.935 µM; with SF-295 CNS, 0.831 µM. Also, the GI50 is 0.76 µM with TK-10 renal, 0.611 µM in the assay on KM12 colon, 0.234 µM in the assay on SK-MEL-5 melanoma and 1.51 µM in the assay with A549 NSCLC. Also, the TGI was over 100 µM in the assay with SF-539 CNS; 2.08 µM with NCI-H522 lung; over 100 µM in the assay on SNB-19 CNS; over 100 µM with OVCAR-5 ovarian; 23.9 µM in the assay on M14 melanoma; 3.16 µM with SF-295 CNS. For the same compound, the TGI was 34 µM in the assay on TK-10 renal, 22 µM in the assay with KM12 colon, 0.684 µM in the assay on SK-MEL-5 melanoma and over 100 µM in the assay on A549 NSCLC.
Take `CC1(C)COC(c2cccnc2/C=N/O)=N1`: the TGI in the assay with SF-539 CNS, in the assay on NCI-H522 lung, with SNB-19 CNS, with OVCAR-5 ovarian, in the assay with M14 melanoma and in the assay on SF-295 CNS was over 100 µM each time. In addition, the TGI in the assay on TK-10 renal, in the assay with KM12 colon, with SK-MEL-5 melanoma and with A549 NSCLC was over 100 µM in each case.
For `COc1ccc(C(C)=O)cc1N1C(=O)C2C(C1=O)C1(c3ccccc3)C(=O)C2(c2ccccc2)C(c2ccc(C)cc2)=C1c1ccc(C)cc1` (stereo not given), the GI50 in the assay on SF-539 CNS, in the assay with NCI-H522 lung, in the assay on SNB-19 CNS, with OVCAR-5 ovarian, in the assay on SF-295 CNS and in the assay with TK-10 renal was over 100 µM in each case. The GI50 in the assay on KM12 colon, in the assay with SK-MEL-5 melanoma and with A549 NSCLC was over 100 µM in each case. Moreover, the TGI with SF-539 CNS, in the assay on NCI-H522 lung, in the assay with SNB-19 CNS, in the assay with OVCAR-5 ovarian, in the assay on SF-295 CNS and in the assay with TK-10 renal was over 100 µM in each case. Moreover, the TGI with KM12 colon, in the assay with SK-MEL-5 melanoma and in the assay on A549 NSCLC was over 100 µM each time.
As for `N#CC(N)(C(=O)CCC(=O)Nc1cccc(Cl)c1)c1ccc(Cl)cc1` (stereo not given), the TGI with SF-539 CNS, in the assay on NCI-H522 lung, in the assay on SNB-19 CNS, in the assay on M14 melanoma, with SF-295 CNS and in the assay on TK-10 renal was over 100 µM in each case. Besides, the TGI in the assay with KM12 colon, in the assay with SK-MEL-5 melanoma and with A549 NSCLC was over 100 µM throughout.
Take `O=C1/C(=C/c2ccc(Br)cc2)COc2ccc(O)c(O)c21`: the GI50 in the assay on SF-539 CNS was 0.436 µM; in the assay on NCI-H522 lung, 0.158 µM; in the assay with SNB-19 CNS, 1.38 µM; in the assay on OVCAR-5 ovarian it was 1.5 µM; with M14 melanoma, 1.41 µM; in the assay with SF-295 CNS it was 2.57 µM. Further, the GI50 in the assay with TK-10 renal was 1.7 µM; in the assay with KM12 colon, 1.11 µM; in the assay on SK-MEL-5 melanoma it was 1.4 µM; with A549 NSCLC, 1.77 µM. The TGI with SF-539 CNS was 1.19 µM; with NCI-H522 lung it was 0.348 µM; in the assay on SNB-19 CNS, 3.05 µM; in the assay on OVCAR-5 ovarian, 3.04 µM; in the assay on M14 melanoma it was 3.47 µM; in the assay with SF-295 CNS, 6.83 µM. Besides, the TGI in the assay with TK-10 renal amounted to 3.2 µM; in the assay with KM12 colon it was 3.35 µM; in the assay on SK-MEL-5 melanoma, 2.84 µM; with A549 NSCLC it was 6.77 µM.
`CC(C)CCN1c2nc(Nc3cc(F)c(O)c(F)c3)ncc2N(C)C(=O)C1C` (stereo not given): the GI50 in the assay with SF-539 CNS is 4.26 µM; with NCI-H522 lung, 2.52 µM; with SNB-19 CNS it was 6.35 µM; in the assay with OVCAR-5 ovarian, 19.1 µM; with M14 melanoma, 4.59 µM; in the assay on SF-295 CNS, 11.3 µM. In addition, the GI50 with TK-10 renal was 4.34 µM; in the assay on KM12 colon it was 2.92 µM; with SK-MEL-5 melanoma, 2.65 µM; in the assay on A549 NSCLC it was 4.88 µM. Moreover, the TGI in the assay on SF-539 CNS was 21.8 µM; in the assay with NCI-H522 lung, 22.4 µM; with SNB-19 CNS it was over 100 µM; in the assay on OVCAR-5 ovarian, over 100 µM; in the assay with M14 melanoma, 26.1 µM; with SF-295 CNS, over 100 µM. The TGI was over 87.2 µM in the assay with TK-10 renal, 14.7 µM in the assay with KM12 colon, 14 µM with SK-MEL-5 melanoma and 37.6 µM in the assay with A549 NSCLC.
In the case of `CCCCC(C(=O)C(=O)NC1C2CC3CC(C2)CC1C3)C(=O)C(C)C` (stereo not given), the TGI in the assay with SF-539 CNS, in the assay with NCI-H522 lung, with SNB-19 CNS, in the assay on OVCAR-5 ovarian, with M14 melanoma and in the assay on SF-295 CNS was over 100 µM throughout. Further, the TGI with TK-10 renal, in the assay with KM12 colon, in the assay with SK-MEL-5 melanoma and in the assay with A549 NSCLC was over 100 µM throughout.
As to `CC(C)c1ccccc1NC(=O)CCc1n[nH]c(=S)o1`, the TGI with SF-539 CNS, in the assay with NCI-H522 lung, with SNB-19 CNS, in the assay with OVCAR-5 ovarian, with M14 melanoma and in the assay on SF-295 CNS was over 100 µM each time. In addition, the TGI in the assay on TK-10 renal, in the assay on KM12 colon, in the assay on SK-MEL-5 melanoma and in the assay with A549 NSCLC was over 100 µM each time.
With `S=C(Nc1ccccc1)N(/N=C/C=C/c1ccccc1)c1nnc(-c2ccccc2)c(-c2ccccc2)n1`, the TGI in the assay on SF-539 CNS, with NCI-H522 lung, in the assay with SNB-19 CNS, in the assay on OVCAR-5 ovarian, with M14 melanoma and with SF-295 CNS was over 100 µM each time. The TGI in the assay with TK-10 renal, in the assay with KM12 colon, in the assay on SK-MEL-5 melanoma and in the assay with A549 NSCLC was over 100 µM each time.

Values taken from PubChem BioAssay (NCI).
